Values joined by “and” are separate entries in the source; they are usually repeats but may differ in a detail not shown here. Equal entries are not always repeated.
How the values were obtained:
Penicillium italicum [1] = assay: In vitro antifungal activity, 96-well microtiter plates; assay type: cell-based; conditions: 25° C., day 10, 1.25 ppm natamycin, 25 ppm bixafen or both
Experimental: Subsequently, 100 μl of a Botrytis cinerea suspension prepared in PCB medium was used to inoculated each well with 2.5×10^3 spores/ml.
After incubation of the microtiter plates at 25° C., the in vitro antifungal activity (%) of the individual active ingredients was assessed by calculating the reduction in mould growth observed in the presence of the active ingredient in comparison to the mould growth observed in the absence of the active ingredient. The expected antifungal activity (E in %) of the active ingredient combination was calculated according to the Colby equation (Colby, 1967): E=X+Y−[(X·Y)/100] wherein X and Y are the observed antifungal activities (in %) of the individual active ingredients X and Y, respectively. If the observed antifungal activity (O in %) of the combination exceeds the expected antifungal activity (E in %) of the combination and the resulting synergy factor O/E is thus >1.0, the combined application of the active ingredients leads to a synergistic antifungal effect.
Furthermore, Penicillium italicum was used for inoculation.

Penicillium italicum [2] = assay: Treatment of apples wounded and inoculated with Penicillium italicum, then dipped; assay type: in vivo; conditions: for Number of moulded apples/total number of 10 apples: 500 ppm natamycin; for Number of moulded apples per total of 10 apples: 250 ppm natamycin
Experimental: Ten fresh, organic apples were used per treatment. Each apple was wounded once using a cork borer according to the method described by de Lapeyre de Bellaire and Dubois (1987). Subsequently, each wound was inoculated with 10 μl of a Penicillium italicum suspension containing 1×10^6 of spores/ml. […] The pH of the compositions was 4. A composition without natamycin or bixafen was used as control. The treated apples were incubated in a closed box in the dark at 20° C. […]
During incubation, the treated apples were assessed on mould growth according to the two methods described in Example 3. […]

Penicillium italicum [3] = assay: Treatment of mandarins wounded and inoculated with Penicillium italicum, then dipped; assay type: in vivo
Experimental: Ten fresh, organic mandarins were used per treatment. The peel of each mandarin was wounded once using a cork borer according to the method described by de Lapeyre de Bellaire and Dubois (1987). Subsequently, each wound was inoculated with 10 μl of a Penicillium italicum suspension containing 1×10^5 of spores/ml. […] The pH of the compositions was 4.
The treated mandarins were incubated in a closed box in the dark at 20° C. and assessed on mould growth during incubation.

Botrytis cinerea [4] = assay: Treatment of strawberries: wounded, inoculated with Botrytis cinerea, then dipped in antifungal composition; assay type: in vivo
Experimental: (§1) Ten fresh, organic strawberries were used per treatment. Each strawberry was wounded with a 0.5 mm long cut and each wound was inoculated with 10 μl of a Botrytis cinerea suspension containing 1×10^5 of spores/ml. […] The pH of the compositions was 4. A composition without natamycin or bixafen was used as control. The treated strawberries were incubated in a closed box in the dark at 20° C.
(§2) During incubation, mould growth on the strawberries was assessed in a twofold manner: (i) the number of moulded strawberries per total of 10 strawberries was counted; and (ii) the antifungal activity (in %) of the individual and combined active ingredients was determined by calculating the reduction in mould growth observed on the strawberries treated with the antifungal composition in comparison to the mould growth on the strawberries treated with the control composition. The expected antifungal activity (E in %) of the combined antifungal composition comprising both active ingredients was calculated according to the Colby equation (Colby, 1967): E=X+Y−[(X·Y)/100] wherein X and Y are the observed antifungal activities (in %) of the individual active ingredients X and Y, respectively. If the observed antifungal activity (O in %) of the combination exceeds the expected antifungal activity (E in %) of the combination and the synergy factor O/E is thus >1.0, the combined application of the active ingredients leads to a synergistic antifungal effect.
The treated strawberries were assessed on mould growth. The antifungal activity (in %) of the individual and combined active ingredients was determined according to the method described in Example 3. […]

Botrytis cinerea [5] = assay: Treatment of strawberries: wounded, dipped in antifungal composition, then inoculated with Botrytis cinerea; assay type: in vivo; conditions: 1000 ppm bixafen or both
Experimental: as §1, §2
After treatment, each strawberry was inoculated with 10 μl of a Botrytis cinerea suspension containing 1×10^5 of spores/ml. The treated strawberries were assessed on mould growth according to the two methods described in Example 3.

[6] = day 3, 500 ppm natamycin, 2000 ppm bixafen or both
[7] = day 6, 250 ppm natamycin, 500 ppm bixafen or both
[8] = day 6, 500 ppm natamycin, 1000 ppm bixafen or both
[9] = day 6, 500 ppm natamycin, 2000 ppm bixafen or both
[10] = day 7, 250 ppm natamycin, 500 ppm bixafen or both
[11] = day 9, 250 ppm natamycin, 500 ppm bixafen or both
[12] = day 9, 500 ppm natamycin, 1000 ppm bixafen or both
[13] = day 9, 500 ppm natamycin, 2000 ppm bixafen or both
[14] = day 11, 500 ppm natamycin, 2000 ppm bixafen or both
[15] = day 14, 500 ppm natamycin, 1000 ppm bixafen or both
[16] = day 14, 500 ppm natamycin, 2000 ppm bixafen or both
[17] = day 4, 250 ppm natamycin, 250 ppm bixafen or both
[18] = day 4, 250 ppm natamycin, 500 ppm bixafen or both
[19] = day 4, 500 ppm natamycin, 2000 ppm bixafen or both
[20] = day 6, 250 ppm natamycin, 250 ppm bixafen or both
[21] = day 7, 250 ppm natamycin, 250 ppm bixafen or both

Cn1cc(C(=O)Nc2ccc(F)cc2-c2ccc(Cl)c(Cl)c2)c(C(F)F)n1 [Bixafen, bixafen]
Observed antifungal activity O (%) (Penicillium italicum [1]): 50%
Number of moulded apples/total number of 10 apples (Penicillium italicum [2]; Day 3, 20° C., 1000 ppm bixafen or both): 6 and 6/10
Number of moulded apples/total number of 10 apples (Penicillium italicum [2]; Day 3-4, 20° C., 2000 ppm bixafen or both): 5/10
Number of moulded apples/total number of 10 apples (Penicillium italicum [2]; Day 4, 20° C., 1000 ppm bixafen or both): 6 and 6/10
Number of moulded apples per total of 10 apples (Penicillium italicum [2]; Day 6, 20° C., 500 ppm bixafen or both): 10 and 10/10
Number of moulded apples/total number of 10 apples (Penicillium italicum [2]; Day 6, 20° C., 1000 ppm bixafen or both): 8 and 8/10
Number of moulded apples/total number of 10 apples (Penicillium italicum [2]; Day 6, 20° C., 2000 ppm bixafen or both): 8 and 8/10
Number of moulded apples per total of 10 apples (Penicillium italicum [2]; Day 6-9, 20° C., 250 ppm bixafen or both): all and 10/10
Number of moulded apples per total of 10 apples (Penicillium italicum [2]; Day 7, 20° C., 500 ppm bixafen or both): 10 and 10/10
Number of moulded apples/total number of 10 apples (Penicillium italicum [2]; Day 7, 20° C., 1000 ppm bixafen or both): 9 and 9/10
Number of moulded apples/total number of 10 apples (Penicillium italicum [2]; Day 7, 20° C., 2000 ppm bixafen or both): 8 and 8/10
Number of moulded apples per total of 10 apples (Penicillium italicum [2]; Day 9, 20° C., 500 ppm bixafen or both): 10 and 10/10
Number of moulded apples/total number of 10 apples (Penicillium italicum [2]; Day 9-14, 20° C., 1000 ppm bixafen or both): all and 10/10
Number of moulded apples/total number of 10 apples (Penicillium italicum [2]; Day 9-14, 20° C., 2000 ppm bixafen or both): all and 10/10
Number of moulded apples per total of 10 apples (Penicillium italicum [2]; Day 11-15, 20° C., 250 ppm bixafen or both): all and 10/10
Observed antifungal activity O (%) (Penicillium italicum [2]; day 3, 500 ppm natamycin, 1000 ppm bixafen or both): 47%
Observed antifungal activity O (%) (Penicillium italicum [2]; [6]): 60%
Observed antifungal activity O (%) (Penicillium italicum [2]; day 6, 250 ppm natamycin, 250 ppm bixafen or both (bixafen 500 ppm)): 17%
Observed antifungal activity O (%) (Penicillium italicum [2]; [7]): 33%
Observed antifungal activity O (%) (Penicillium italicum [2]; [8]): 44%
Observed antifungal activity O (%) (Penicillium italicum [2]; [9]): 39%
Observed antifungal activity O (%) (Penicillium italicum [2]; [10]): 39%
Observed antifungal activity O (%) (Penicillium italicum [2]; day 9, 250 ppm natamycin, 250 ppm bixafen or both (bixafen 500 ppm)): 13%
Observed antifungal activity O (%) (Penicillium italicum [2]; [11]): 17%
Observed antifungal activity O (%) (Penicillium italicum [2]; [12]): 38%
Observed antifungal activity O (%) (Penicillium italicum [2]; [13]): 29%
Observed antifungal activity O (%) (Penicillium italicum [2]; day 11, 250 ppm natamycin, 250 ppm bixafen or both (bixafen 500 ppm)): 0%
Observed antifungal activity O (%) (Penicillium italicum [2]; day 11, 500 ppm natamycin, 1000 ppm bixafen or both): 30%
Observed antifungal activity O (%) (Penicillium italicum [2]; [14]): 30%
Observed antifungal activity O (%) (Penicillium italicum [2]; day 14, 250 ppm natamycin, 250 ppm bixafen or both (bixafen 500 ppm)): 6%
Observed antifungal activity O (%) (Penicillium italicum [2]; [15]): 21%
Observed antifungal activity O (%) (Penicillium italicum [2]; [16]): 36%
Observed antifungal activity O (%) (Penicillium italicum [3]; day 3, 250 ppm natamycin, 250 ppm bixafen or both): 65%
Observed antifungal activity O (%) (Penicillium italicum [3]; [17]): 27%
Observed antifungal activity O (%) (Penicillium italicum [3]; [18]): 40%
Observed antifungal activity O (%) (Penicillium italicum [3]; day 4, 500 ppm natamycin, 1000 ppm bixafen or both): 37%
Observed antifungal activity O (%) (Penicillium italicum [3]; [19]): 47%
Observed antifungal activity O (%) (Penicillium italicum [3]; [20]): 28%
Observed antifungal activity O (%) (Penicillium italicum [3]; [7]): 26%
Observed antifungal activity O (%) (Penicillium italicum [3]; [8]): 22%
Observed antifungal activity O (%) (Penicillium italicum [3]; [9]): 32%
Observed antifungal activity O (%) (Penicillium italicum [3]; [21]): 10%
Observed antifungal activity O (%) (Penicillium italicum [3]; [10]): 10%
Observed antifungal activity O (%) (Penicillium italicum [3]; day 7, 500 ppm natamycin, 1000 ppm bixafen or both): 6%
Observed antifungal activity O (%) (Penicillium italicum [3]; day 9, 250 ppm natamycin, 250 ppm bixafen or both): 0%
Observed antifungal activity O (%) (Penicillium italicum [3]; [11]): 0%
Observed antifungal activity O (%) (Penicillium italicum [3]; [12]): 2%
Observed antifungal activity O (%) (Penicillium italicum [3]; [13]): 7%
Observed antifungal activity O (%) (Penicillium italicum [3]; day 11, 250 ppm natamycin, 500 ppm bixafen or both): 0%
Observed antifungal activity O (%) (Penicillium italicum [3]; [14]): 9%
Observed antifungal activity O (%) (Penicillium italicum [3]; day 13, 250 ppm natamycin, 500 ppm bixafen or both): 0%
Observed antifungal activity O (%) (Penicillium italicum [3]; [15]): 0%
Observed antifungal activity O (%) (Penicillium italicum [3]; [16]): 3%
Observed antifungal activity O (%) (Penicillium italicum [3]; day 15, 250 ppm natamycin, 500 ppm bixafen or both): 0%
Observed antifungal activity O (%) (Penicillium italicum [3]; day 15, 500 ppm natamycin, 1000 ppm bixafen or both): 0%
Observed antifungal activity O (%) (Penicillium italicum [3]; day 15, 500 ppm natamycin, 2000 ppm bixafen or both): 0%
Number of moulded strawberries/total number of 10 strawberries (Botrytis cinerea [4]; Day 3, 20° C., 250 ppm natamycin, 250 ppm bixafen or both): 9 and 9/10
Number of moulded strawberries/total number of 10 strawberries (Botrytis cinerea [4]; Day 3, 20° C., 500 ppm natamycin, 2000 ppm bixafen or both): 8 and 8/10
Number of moulded strawberries/total number of 10 strawberries (Botrytis cinerea [4]; Day 4, 20° C., 250 ppm natamycin, 250 ppm bixafen or both): 9 and 9/10
Number of moulded strawberries/total number of 10 strawberries (Botrytis cinerea [4]; Day 4, 20° C., 500 ppm natamycin, 2000 ppm bixafen or both): 9 and 9/10
Number of moulded strawberries/total number of 10 strawberries (Botrytis cinerea [4]; Day 5, 20° C., 250 ppm natamycin, 250 ppm bixafen or both): 10 and 10/10
Number of moulded strawberries/total number of 10 strawberries (Botrytis cinerea [4]; Day 5-6, 20° C., 500 ppm natamycin, 2000 ppm bixafen or both): 10 and 10/10
Observed antifungal activity O (%) (Botrytis cinerea [4]; [6]): 62%
Observed antifungal activity O (%) (Botrytis cinerea [4]; [17]): 47%
Observed antifungal activity O (%) (Botrytis cinerea [4]; [18]): 65%
Observed antifungal activity O (%) (Botrytis cinerea [4]; [19]): 55%
Observed antifungal activity O (%) (Botrytis cinerea [4]; day 5, 250 ppm natamycin, 250 ppm bixafen or both): 33%
Observed antifungal activity O (%) (Botrytis cinerea [4]; day 5, 500 ppm natamycin, 2000 ppm bixafen or both): 34%
Observed antifungal activity O (%) (Botrytis cinerea [4]; [20]): 23%
Observed antifungal activity O (%) (Botrytis cinerea [4]; [7]): 33%
Observed antifungal activity O (%) (Botrytis cinerea [4]; [9]): 27%
Observed antifungal activity O (%) (Botrytis cinerea [4]; [21]): 10%
Observed antifungal activity O (%) (Botrytis cinerea [4]; [10]): 12%
Observed antifungal activity O (%) (Botrytis cinerea [4]; day 7, 500 ppm natamycin, 2000 ppm bixafen or both): 12%
Observed antifungal activity O (%) (Botrytis cinerea [4]; [11]): 5%
Observed antifungal activity O (%) (Botrytis cinerea [4]; [13]): 3%
Observed antifungal activity O (%) (Botrytis cinerea [4]; day 10, 250 ppm natamycin, 500 ppm bixafen or both): 0%
Observed antifungal activity O (%) (Botrytis cinerea [5]; day 3, 500 ppm natamycin): 72%
Number of moulded wounds/total number of 10 wounds (Botrytis cinerea [5]; day 5, 20° C., 250 ppm natamycin): 8 and 8/10
Observed antifungal activity O (%) (Botrytis cinerea [5]; day 5, 500 ppm natamycin): 55%
Observed antifungal activity O (%) (Botrytis cinerea [5]; day 6, 500 ppm natamycin): 35%
